Measurements: patent US20240425502A1, “BICYCLIC HETEROAROMATIC COMPOUNDS AND THEIR USE AS PEST CONTROL AGENTS” (PI INDUSTRIES LTD., priority 2021, published 2024)

How the values were obtained:
Type in all cases: in vivo
Nilaparvata lugens = Nilaparvata lugens seedling dip test (paddy seedlings, third instar nymphs); details: 72 h after release, dead and moribund combined, compared to untreated control, read-out: percent mortality
Myzus persicae = Myzus persicae leaf dip test (capsicum leaves, third instar nymphs); details: foliar, 72 h after release, dead and moribund combined, compared to untreated control, read-out: percent mortality
Bemisia tabaci = Bemisia tabaci leaf dip test (brinjal leaves, whitefly adults); details: foliar, 72 h after release, dead and moribund combined, compared to untreated control, read-out: percent mortality
Method: The leaf dip method was used for testing, wherein the required quantity of the compound was weighed and dissolved in a tube containing a solvent solution. The tube was put on a vortex at 2000 rpm for 90 min for proper mixing and then the mixture was diluted with a 0.01% Triton-X solution to the desired test concentration. Brinjal leaves were dipped in the compound solution for 10 seconds, shade dried for 20 min and then placed, with the abaxial side of the leaf up, on 4 ml of a 1% agar-agar solution in respective container caps. Known numbers of freshly emerged whitefly adults were collected, using a modified aspirator, and released into a perforated container in which the cap containing the treated leaf was placed. The containers were kept in a plant growth chamber at a temperature of 25° C. and a relative humidity of 70%. Observations on dead, moribund and alive adults were recorded 72 h after the release. Percent mortality was calculated by combining dead and moribund adults and comparing the result to the one of the untreated control. The compounds 32 53 58 79 80 81 82 84 87 88 89 94 95 96 101 102 103 104 105 106 107 108 109 112 113 114 115 116 117 118 119 120 123 124 125 126 127 130 135 138 139 140 144 145 147 150 154 156 158 159 164 167 168 169 170 171 188 189 191 198 199 200 201 202 206 207 208 209 210 213 216 223 224 225 227 228 231 232 233 234 235 236 238 242 243 244 246 and 247 recorded≥70 percent mortality @ 300 PPM.

## O=c1nc2n(Cc3cnc(Cl)s3)cccc-2c(=O)n1-c1ccccc1 [Compound 62, 8-((2-chlorothiazol-5-yl)methyl)-3-phenylpyrido[2,3-d]pyrimidine-2,4(3H,8H)-dione]
Nilaparvata lugens
  mortality at 300 ppm: ≥ 70%

## COc1cccc(-n2c(=O)nc3n(Cc4cnc(Cl)s4)cccc-3c2=O)c1 [Compound 72, 8-((2-chlorothiazol-5-yl)methyl)-3-(3-methoxyphenyl)pyrido[2,3-d]pyrimidine-2,4(3H,8H)-dione]
Nilaparvata lugens
  mortality at 300 ppm: ≥ 70%

## COc1ccccc1-n1c(=O)nc2n(Cc3cnc(Cl)s3)cccc-2c1=O [Compound 73, 8-((2-chlorothiazol-5-yl)methyl)-3-(2-methoxyphenyl)pyrido[2,3-d]pyrimidine-2,4(3H,8H)-dione]
Nilaparvata lugens
  mortality at 300 ppm: ≥ 70%
Myzus persicae
  mortality at 300 ppm: ≥ 70%

## Cc1cccc(-n2c(=O)nc3n(Cc4cnc(Cl)nc4)cccc-3c2=O)c1 [Compound 128, 8-((2-chloropyrimidin-5-yl)methyl)-3-(m-tolyl)pyrido[2,3-d]pyrimidine-2,4(3H,8H)-dione]
Nilaparvata lugens
  mortality at 300 ppm: ≥ 70%

## O=c1nc2n(Cc3cnc(Cl)s3)cccc-2c(=O)n1-c1cc(F)cc(F)c1 [Compound 141, 8-((2-chlorothiazol-5-yl)methyl)-3-(3,5-difluorophenyl)pyrido[2,3-d]pyrimidine-2,4(3H,8H)-dione]
Nilaparvata lugens
  mortality at 300 ppm: ≥ 70%
Myzus persicae
  mortality at 300 ppm: ≥ 70%

## O=c1nc2n(Cc3cnc(Cl)s3)cccc-2c(=O)n1-c1cccc(F)c1 [Compound 143, 8-((2-chlorothiazol-5-yl)methyl)-3-(3-fluorophenyl)pyrido[2,3-d]pyrimidine-2,4(3H,8H)-dione]
Nilaparvata lugens
  mortality at 300 ppm: ≥ 70%

## Cc1ccc(-n2c(=O)nc3n(Cc4cnc(Cl)nc4)cccc-3c2=O)cc1 [Compound 144, 8-((2-chloropyrimidin-5-yl)methyl)-3-(p-tolyl)pyrido[2,3-d]pyrimidine-2,4(3H,8H)-dione]
Bemisia tabaci
  mortality at 300 ppm: ≥ 70%

## O=c1nc2n(Cc3cnc(Cl)s3)cccc-2c(=O)n1-c1cccc(OC(F)F)c1 [Compound 151, 8-((2-chlorothiazol-5-yl)methyl)-3-(3-(difluoromethoxy)phenyl)pyrido[2,3-d]pyrimidine-2,4(3H,8H)-dione]
Nilaparvata lugens
  mortality at 300 ppm: ≥ 70%
Myzus persicae
  mortality at 300 ppm: ≥ 70%

## O=c1nc2n(Cc3cnc(Cl)s3)cccc-2c(=O)n1-c1ccc(F)cc1 [Compound 153, 8-((2-chlorothiazol-5-yl)methyl)-3-(4-fluorophenyl)pyrido[2,3-d]pyrimidine-2,4(3H,8H)-dione]
Nilaparvata lugens
  mortality at 300 ppm: ≥ 70%

## O=c1nc2n(Cc3cnc(Cl)nc3)cccc-2c(=O)n1-c1ccc(OC(F)F)cc1 [Compound 160, 8-((2-chloropyrimidin-5-yl)methyl)-3-(4-(difluoromethoxy)phenyl)pyrido[2,3-d]pyrimidine-2,4(3H,8H)-dione]
Nilaparvata lugens
  mortality at 300 ppm: ≥ 70%
Myzus persicae
  mortality at 300 ppm: ≥ 70%

## O=c1nc2n(Cc3ccc(C(F)(F)F)nc3)cccc-2c(=O)n1-c1ccccc1F [Compound 162, 3-(2-fluorophenyl)-8-((6-(trifluoromethyl)pyridin-3-yl)methyl)pyrido[2,3-d]pyrimidine-2,4(3H,8H)-dione]
Nilaparvata lugens
  mortality at 300 ppm: ≥ 70%

## O=c1nc2n(Cc3cnc(Cl)s3)cccc-2c(=O)n1-c1ccc(F)c(Cl)c1 [Compound 165, 3-(3-chloro-4-fluorophenyl)-8-((2-chlorothiazol-5-yl)methyl)pyrido[2,3-d]pyrimidine-2,4(3H,8H)-dione]
Nilaparvata lugens
  mortality at 300 ppm: ≥ 70%

## O=c1nc2n(Cc3ccc(C(F)(F)F)nc3)cccc-2c(=O)n1-c1cccc(C(F)(F)F)c1 [Compound 172, 3-(3-(trifluoromethyl)phenyl)-8-((6-(trifluoromethyl)pyridin-3-yl)methyl)pyrido[2,3-d]pyrimidine-2,4(3H,8H)-dione]
Myzus persicae
  mortality at 300 ppm: ≥ 70%

## O=c1nc2n(Cc3cnc(Cl)nc3)cccc-2c(=O)n1-c1ccsc1 [Compound 179, 8-((2-chloropyrimidin-5-yl)methyl)-3-(thiophen-3-yl)pyrido[2,3-d]pyrimidine-2,4(3H,8H)-dione]
Nilaparvata lugens
  mortality at 300 ppm: ≥ 70%
Myzus persicae
  mortality at 300 ppm: ≥ 70%

## O=c1nc2n(Cc3cnc(Cl)s3)cccc-2c(=O)n1-c1cccc(C(F)F)c1 [Compound 187, 8-((2-chlorothiazol-5-yl)methyl)-3-(3-(difluoromethyl)phenyl)pyrido[2,3-d]pyrimidine-2,4(3H,8H)-dione]
Nilaparvata lugens
  mortality at 300 ppm: ≥ 70%
Myzus persicae
  mortality at 300 ppm: ≥ 70%

## O=c1nc2n(Cc3cnc(Cl)s3)cccc-2c(=O)n1-c1ccc(Cl)cc1F [Compound 193, 3-(4-chloro-2-fluorophenyl)-8-((2-chlorothiazol-5-yl)methyl)pyrido[2,3-d]pyrimidine-2,4(3H,8H)-dione]
Nilaparvata lugens
  mortality at 300 ppm: ≥ 70%
Myzus persicae
  mortality at 300 ppm: ≥ 70%

## O=c1nc2n(Cc3ccc(Cl)nc3)cccc-2c(=O)n1-c1ccc(OC(F)(F)F)c(Cl)c1 [Compound 195, 3-(3-chloro-4-(trifluoromethoxy)phenyl)-8-((6-chloropyridin-3-yl)methyl)pyrido[2,3-d]pyrimidine-2,4(3H,8H)-dione]
Nilaparvata lugens
  mortality at 300 ppm: ≥ 70%
Myzus persicae
  mortality at 300 ppm: ≥ 70%

## O=c1nc2n(Cc3cnc(Cl)nc3)cccc-2c(=O)n1-c1cccc(C(F)F)c1 [Compound 203, 8-((2-chloropyrimidin-5-yl)methyl)-3-(3-(difluoromethyl)phenyl)pyrido[2,3-d]pyrimidine-2,4(3H,8H)-dione]
Nilaparvata lugens
  mortality at 300 ppm: ≥ 70%
Myzus persicae
  mortality at 300 ppm: ≥ 70%

## O=c1nc2n(Cc3cnc(Cl)nc3)cccc-2c(=O)n1-c1cccc(F)c1F [Compound 205, 8-((2-chloropyrimidin-5-yl)methyl)-3-(2,3-difluorophenyl)pyrido[2,3-d]pyrimidine-2,4(3H,8H)-dione]
Nilaparvata lugens
  mortality at 300 ppm: ≥ 70%
Myzus persicae
  mortality at 300 ppm: ≥ 70%

## O=c1nc2n(Cc3ccc(Cl)nc3)cccc-2c(=O)n1-c1cccc(OCC(F)(F)F)c1 [Compound 211, 8-((6-chloropyridin-3-yl)methyl)-3-(3-(2,2,2-trifluoroethoxy)phenyl)pyrido[2,3-d]pyrimidine-2,4(3H,8H)-dione]
Nilaparvata lugens
  mortality at 300 ppm: ≥ 70%
Myzus persicae
  mortality at 300 ppm: ≥ 70%

## O=c1nc2n(Cc3cnc(Cl)s3)cccc-2c(=O)n1-c1ccc(OC(F)(F)F)c(Cl)c1 [Compound 212, 3-(3-chloro-4-(trifluoromethoxy)phenyl)-8-((2-chlorothiazol-5-yl)methyl)pyrido[2,3-d]pyrimidine-2,4(3H,8H)-dione]
Nilaparvata lugens
  mortality at 300 ppm: ≥ 70%
Myzus persicae
  mortality at 300 ppm: ≥ 70%

## O=c1nc2n(Cc3cnc(Cl)s3)cccc-2c(=O)n1-c1cccc(F)c1F [Compound 214, 8-((2-chlorothiazol-5-yl)methyl)-3-(2,3-difluorophenyl)pyrido[2,3-d]pyrimidine-2,4(3H,8H)-dione]
Nilaparvata lugens
  mortality at 300 ppm: ≥ 70%
Myzus persicae
  mortality at 300 ppm: ≥ 70%

## O=c1nc2n(Cc3cnc(Cl)s3)cccc-2c(=O)n1-c1c(F)cccc1F [Compound 215, 8-((2-chlorothiazol-5-yl)methyl)-3-(2,6-difluorophenyl)pyrido[2,3-d]pyrimidine-2,4(3H,8H)-dione]
Nilaparvata lugens
  mortality at 300 ppm: ≥ 70%

## O=c1nc2n(Cc3cnc(Cl)s3)cccc-2c(=O)n1-c1cccc(Cl)c1F [Compound 217, 3-(3-chloro-2-fluorophenyl)-8-((2-chlorothiazol-5-yl)methyl)pyrido[2,3-d]pyrimidine-2,4(3H,8H)-dione]
Nilaparvata lugens
  mortality at 300 ppm: ≥ 70%
Myzus persicae
  mortality at 300 ppm: ≥ 70%

## O=c1nc2n(Cc3ccc(Cl)nc3)cccc-2c(=O)n1-c1ccc(Cl)c(C(F)(F)F)c1 [Compound 219, 3-(4-chloro-3-(trifluoromethyl)phenyl)-8-((6-chloropyridin-3-yl)methyl)pyrido[2,3-d]pyrimidine-2,4(3H,8H)-dione]
Nilaparvata lugens
  mortality at 300 ppm: ≥ 70%

## O=c1nc2n(Cc3ccc(Cl)nc3)cccc-2c(=O)n1-c1ccc(F)c(C(F)(F)F)c1 [Compound 222, 8-((6-chloropyridin-3-yl)methyl)-3-(4-fluoro-3-(trifluoromethyl)phenyl)pyrido[2,3-d]pyrimidine-2,4(3H,8H)-dione]
Myzus persicae
  mortality at 300 ppm: ≥ 70%

## O=c1nc2n(Cc3cnc(Cl)nc3)cccc-2c(=O)n1-c1cccc(Cl)c1F [Compound 226, 3-(3-chloro-2-fluorophenyl)-8-((2-chloropyrimidin-5-yl)methyl)pyrido[2,3-d]pyrimidine-2,4(3H,8H)-dione]
Nilaparvata lugens
  mortality at 300 ppm: ≥ 70%
Myzus persicae
  mortality at 300 ppm: ≥ 70%

## O=c1nc2n(Cc3cnc(Cl)s3)cccc-2c(=O)n1-c1ccc(F)cc1Cl [Compound 237, 3-(2-chloro-4-fluorophenyl)-8-((2-chlorothiazol-5-yl)methyl)pyrido[2,3-d]pyrimidine-2,4(3H,8H)-dione]
Nilaparvata lugens
  mortality at 300 ppm: ≥ 70%

## O=c1nc2n(Cc3cnc(Cl)nc3)cccc-2c(=O)n1-c1ccc(C2CC2)cc1 [Compound 245, 8-((2-chloropyrimidin-5-yl)methyl)-3-(4-cyclopropylphenyl)pyrido[2,3-d]pyrimidine-2,4(3H,8H)-dione]
Nilaparvata lugens
  mortality at 300 ppm: ≥ 70%

## O=c1nc2n(Cc3cnc(Cl)s3)cccc-2c(=O)n1-c1cccc(Br)c1 [Compound 249, 3-(3-bromophenyl)-8-((2-chlorothiazol-5-yl)methyl)pyrido[2,3-d]pyrimidine-2,4(3H,8H)-dione]
Nilaparvata lugens
  mortality at 300 ppm: ≥ 70%
